Measurements from ChEMBL document CHEMBL5532680, “Identification of a Sonically Activated Degrader of Methionine Adenosyltransferase 2A by an in Silico Approach Assisted with the Hole-Electron Analysis” (J Med Chem, 2024).
Calls of active or inactive are those of the source. No cut-off for these calls is given here.

Experiments:
[1] = target: T1, S-adenosylmethionine synthase isoform type-2 (Homo sapiens, UniProt P31153); assay: Inhibition of recombinant human MAT2A expressed in baculovirus infected Sf9 cells using L-methione as substrate preincubated for 15 mins followed by substrate addition and measured after 60 mins in presence of ATP by Kinase-Glo luminescent assay
Target sequence in this assay (P31153 whole entry, canonical isoform): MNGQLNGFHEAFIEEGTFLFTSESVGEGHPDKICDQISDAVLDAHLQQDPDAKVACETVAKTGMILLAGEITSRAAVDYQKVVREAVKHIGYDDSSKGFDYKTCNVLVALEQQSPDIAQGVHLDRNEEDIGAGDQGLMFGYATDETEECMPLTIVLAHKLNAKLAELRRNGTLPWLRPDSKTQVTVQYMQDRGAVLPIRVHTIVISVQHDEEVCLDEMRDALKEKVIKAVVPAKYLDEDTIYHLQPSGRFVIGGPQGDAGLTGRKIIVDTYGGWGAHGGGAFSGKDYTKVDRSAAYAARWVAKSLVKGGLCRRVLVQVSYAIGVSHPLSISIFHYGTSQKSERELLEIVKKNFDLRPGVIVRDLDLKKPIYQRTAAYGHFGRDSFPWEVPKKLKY

[2] = target: T1, S-adenosylmethionine synthase isoform type-2; assay: Inhibition of recombinant human MAT2A expressed in baculovirus infected Sf9 cells at grated than 10 nM using L-methione as substrate preincubated for 15 mins followed by substrate addition and measured after 60 mins in presence of ATP by Kinase-Glo luminescent assay; details: time 75.0 min
Target sequence in this assay (P31153 whole entry, looked up, canonical isoform): as the sequence (P31153 whole entry, canonical isoform) above

HCT-116 [3] = assay: Antiproliferative activity against MTAP knocked out human HCT-116 cells incubated for 5 days by MTT method; format: functional, cell-based; details: HCT-116, 120 h
[4] = Drug localization in human HCT-116 cells cytoplasm assessed as bright red fluorescence at 1 uM by Hoechst 33342 staining based confocal assay; format: ADME, cell-based; details: hct-116, 1 µM
HCT-116 [5] = assay: Induction of ROS generation in human HCT-116 cells assessed as fold increase at 0.1 uM preincubated for 6 hrs followed by sonication for 4 mins by DCFH-DA staining based flow cytometry analysis; format: functional; details: time 364 min, 6.067 h
[6] = target: T1, S-adenosylmethionine synthase isoform type-2; assay: Induction of MAT2A degradation in human HCT-116 cells preincubated for 4 hrs followed by 1.0 MHz, 0.8W/cm2 ultrasound treatment for 0.5 mins by Western blotting assay; format: cell-based
Target sequence in this assay (P31153 whole entry, canonical isoform): as above

[7] = target: T1, S-adenosylmethionine synthase isoform type-2; assay: Induction of MAT2A degradation in human HCT-116 cells assessed as MAT2A level at 0.1 uM preincubated for 4 hrs followed by 1.0 MHz, 0.8W/cm2 ultrasound treatment for 4 mins and measured upto 24 hrs by Western blotting assay; format: cell-based; details: time <= 1684.0 min
Target sequence in this assay (P31153 whole entry, looked up, canonical isoform): as the sequence (P31153 whole entry, canonical isoform) above

HCT-116 [8] = assay: Antiproliferative activity against wild type human HCT-116 cells assessed as cell viability at 10 uM under 4 mins sonication; format: functional; details: HCT-116, 4 min, read-out: Activity
HCT-116 [9] = assay: Induction of apoptosis in human HCT-116 cells assessed as increase in late apoptotic cells at 0.1 uM preincubated for 24 hrs followed by sonication for 4 mins by annexin V-FITC/PI staining based flow cytometry analysis relative to control; format: functional; details: time 1444 min, 24.07 h
[10] = Tmax in ICR mouse at 10 mg/kg, po measured upto 24 hrs by LC-MS/MS analysis; format: ADME, organism-based; details: in vivo
[11] = Half-life in ICR mouse at 1 mg/kg, iv measured upto 24 hrs by LC-MS/MS analysis; format: ADME, organism-based; details: in vivo
[12] = AUC in ICR mouse at 10 mg/kg, po measured upto 24 hrs by LC-MS/MS analysis; format: ADME, organism-based; details: in vivo
[13] = Mean residence time in BALB/c mouse at 10 mg/kg, po measured upto 24 hrs by LC-MS/MS analysis; format: ADME, organism-based; details: in vivo
[14] = Biodistribution in MATP knocked out human HCT-116 cells xenografted in BALB/c mouse assessed as fluorescence intensity in skin at 10 mg/kg, po measured after 24 hrs; format: ADME, organism-based; details: in vivo
[15] = Biodistribution in […] knocked out human HCT-116 cells xenografted in BALB/c mouse assessed as fluorescence intensity in heart at 10 mg/kg, po measured after 24 hrs; format: ADME, organism-based; details: in vivo
[16] = Biodistribution in […] knocked out human HCT-116 cells xenografted in BALB/c mouse assessed as fluorescence intensity in kidney at 10 mg/kg, po measured after 24 hrs; format: ADME, organism-based; details: in vivo
HCT-116 [17] = assay: Antitumor activity against […] knocked out human HCT-116 cells xenografted in BALB/c mouse assessed as tumor growth inhibition at 10 mg/kg, po administered once a day for 6 hrs and measured after 3 weeks; format: functional; details: HCT-116, 504 h, read-out: TGI
HCT-116 [18] = assay: Antitumor activity against […] knocked out human HCT-116 cells xenografted in BALB/c mouse assessed as tumor regression at 10 mg/kg, po administered once a day followed by 4 mins sonication post 6 hrs of compound administration and measured for 3 weeks; format: functional
[19] = Toxicity in BALB/c mouse xenografted with human HCT-116 cells assessed as body weight loss at 10 mg/kg, po administered once a day followed by 4 mins sonication post 6 hrs of compound administration and measured for 3 weeks; format: organism-based; details: in vivo, 504 h
[20] = Toxicity in BALB/c mouse xenografted with human HCT-116 cells assessed as liver tissue rupture at 50 mg/kg, po by H and E staining based assay; format: organism-based; details: in vivo
[21] = Toxicity in BALB/c mouse xenografted with human HCT-116 cells assessed as change in liver cell nucleus size at 100 mg/kg, po by H and E staining based assay; format: organism-based; details: in vivo
[22] = Toxicity in BALB/c mouse xenografted with human HCT-116 cells assessed as heart damage at 100 mg/kg, po by H and E staining based assay; format: organism-based; details: in vivo
[23] = Toxicity in BALB/c mouse xenografted with human HCT-116 cells assessed as spleen damage at 100 mg/kg, po by H and E staining based assay; format: organism-based; details: in vivo
[24] = Toxicity in BALB/c mouse xenografted with human HCT-116 cells assessed as kidney damage at 100 mg/kg, po by H and E staining based assay; format: organism-based; details: in vivo
[25] = Apparent permeability in MDCKII-MDR1 cells; format: ADME, cell-based, Canis lupus familiaris; details: dog, MDCK-MDR1
MDR1 (P-gp) = assay: Efflux ratio of apparent permeability in MDCKII-MDR1 cells; format: ADME, cell-based, Canis lupus familiaris; details: dog, MDCK-MDR1
[26] = Intrinsic clearance in human liver microsomes; format: ADME, Microsome; details: read-out: CLH
Cytochrome P450 1A2 = target: T2, Cytochrome P450 1A2 (Homo sapiens, UniProt P05177); assay: Inhibition of CYP1A2 (unknown origin); format: ADME
T2 sequence (P05177 whole entry): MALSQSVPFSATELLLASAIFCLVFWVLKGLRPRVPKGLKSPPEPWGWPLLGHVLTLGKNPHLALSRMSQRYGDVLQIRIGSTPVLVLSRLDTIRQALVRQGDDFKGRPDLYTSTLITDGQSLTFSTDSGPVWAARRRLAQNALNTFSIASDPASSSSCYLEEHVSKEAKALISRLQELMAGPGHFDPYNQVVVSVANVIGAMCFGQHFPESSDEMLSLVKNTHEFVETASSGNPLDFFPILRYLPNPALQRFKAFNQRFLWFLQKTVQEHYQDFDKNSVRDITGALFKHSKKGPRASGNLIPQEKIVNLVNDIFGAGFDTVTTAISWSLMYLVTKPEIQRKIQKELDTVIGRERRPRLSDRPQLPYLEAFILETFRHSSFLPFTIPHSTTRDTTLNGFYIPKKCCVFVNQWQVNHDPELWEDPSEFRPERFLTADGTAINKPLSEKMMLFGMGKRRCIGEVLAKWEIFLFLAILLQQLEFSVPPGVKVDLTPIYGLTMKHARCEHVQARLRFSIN

Cytochrome P450 2C19 = Cytochrome P450 2C19 (Homo sapiens, UniProt P33261); assay: Inhibition of CYP2C19 (unknown origin); format: ADME
Cytochrome P450 2D6 = Cytochrome P450 2D6 (Homo sapiens, UniProt P10635); assay: Inhibition of CYP2D6 (unknown origin); format: ADME
Cytochrome P450 2D6, sequence (P10635 whole entry): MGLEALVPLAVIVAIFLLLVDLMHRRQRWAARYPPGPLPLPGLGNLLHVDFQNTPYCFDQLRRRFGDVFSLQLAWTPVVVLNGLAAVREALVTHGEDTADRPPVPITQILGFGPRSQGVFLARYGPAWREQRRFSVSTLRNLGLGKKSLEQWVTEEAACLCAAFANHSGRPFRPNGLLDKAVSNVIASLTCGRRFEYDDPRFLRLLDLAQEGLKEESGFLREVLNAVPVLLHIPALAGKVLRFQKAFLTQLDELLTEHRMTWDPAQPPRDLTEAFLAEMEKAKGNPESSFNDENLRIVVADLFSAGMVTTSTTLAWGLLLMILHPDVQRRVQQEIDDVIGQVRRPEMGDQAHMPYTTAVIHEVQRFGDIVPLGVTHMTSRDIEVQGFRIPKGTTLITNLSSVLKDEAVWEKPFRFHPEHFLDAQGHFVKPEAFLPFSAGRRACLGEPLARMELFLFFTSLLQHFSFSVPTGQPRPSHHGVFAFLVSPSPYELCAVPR

Cytochrome P450 2C19, sequence (P33261 whole entry): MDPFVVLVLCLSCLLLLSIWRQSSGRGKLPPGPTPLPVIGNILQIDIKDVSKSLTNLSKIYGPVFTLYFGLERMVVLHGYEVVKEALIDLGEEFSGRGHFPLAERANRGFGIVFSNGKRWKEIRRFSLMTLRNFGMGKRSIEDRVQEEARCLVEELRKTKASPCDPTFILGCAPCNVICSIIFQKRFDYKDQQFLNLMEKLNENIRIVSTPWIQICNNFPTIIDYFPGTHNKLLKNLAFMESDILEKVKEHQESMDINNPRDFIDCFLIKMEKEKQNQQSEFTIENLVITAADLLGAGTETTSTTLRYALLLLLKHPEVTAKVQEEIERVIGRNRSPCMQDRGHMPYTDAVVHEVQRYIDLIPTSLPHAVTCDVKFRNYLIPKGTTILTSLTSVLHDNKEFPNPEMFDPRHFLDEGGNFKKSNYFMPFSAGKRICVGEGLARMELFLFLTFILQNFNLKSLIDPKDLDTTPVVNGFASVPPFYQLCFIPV

IC50 [1]: 0.061 µM
inhibition [2]: Active
IC50 (HCT-116 [3]): 0.35 µM
Drug uptake [4]: Active
EC50 [6]: 0.36 µM
Activity [7]: Active
Tmax [10]: 0.5 h
half-life [11]: 1.6 h
AUC at 24 h [12]: 9.71 µg·h/mL
MRT [13]: 5.1 h
Drug uptake [14]: Active
Drug uptake [15]: Not Active
Drug uptake [16]: Not Active
Papp [25]: 134 nm/s
efflux ratio (MDR1 (P-gp)): 0.9
CLint scaled [26]: 0.576 L/h/kg
IC50 (Cytochrome P450 1A2): > 50 µM
IC50 (Cytochrome P450 2C19): 16 µM
IC50 (Cytochrome P450 2D6): 39 µM
SMILES: CCOc1ncc2cc(-c3ccc4c(c3)N3CCCC3CO4)c(=O)n(-c3ccc(OC(F)F)cc3)c2n1 (stereo not given)
fold change (FC) (HCT-116 [5]): 6
viability at 10 µM (HCT-116 [8]): 77%
Activity (HCT-116 [9]): 9%
inhibition in vivo at 10 mg/kg (HCT-116 [17]): 15.6%
Activity (HCT-116 [18]): 31%
Activity [19]: Non-Toxic
Activity [20]: Toxic
Activity [21]: Toxic
Activity [22]: Non-Toxic
Activity [23]: Non-Toxic
Activity [24]: Non-Toxic
